# Source: patent publication US11958832B1, “2-alkoxy[4,3:6,3-terpyridine]-3-carbonitriles as antimicrobial compounds” (KING FAISAL UNIVERSITY, priority 2023, dated 2024)
# How the values were obtained:
# Format in all cases: cell-based
# [1] = test system: Bacillus cereus; test: Agar plate disc-diffusion, antibacterial inhibition zone; conditions: nutrient agar, 37° C., 48 hours, DMSO zone subtracted; for inhibition zone, Bacillus Cereus, A: A = concentration of comp. = 10,000 μL; for inhibition zone, Bacillus Cereus, B: B = concentration of comp. = 30,000 μL; for inhibition zone, Bacillus Cereus, C: C = concentration of comp. = 50,000 μL
# Protocol: (§1) The agar plate disc-diffusion method was applied. Sterilized filter papers (6 mm in diameter) were wetted with 10 μL of a solution of compounds 2-ethoxy[4,3:6,3-terpyridine]-3-carbonitrile 4 and/or 2-methoxy[4,3:6,3-terpyridine]-3-carbonitrile 5 to be tested, […], and the discs were allowed to air dry. The discs were then placed onto the surface of agar plates (nutrient agar for bacteria and Sabouraud's dextrose agar for fungi) seeded with the test organism. Each plate contained 15 mL of the agar medium, previously seeded with 0.2 mL of the broth culture of each organism pregrown for 18 h. The plates were incubated at 37° C. for 48 hours, and 72 hours for fungi. The inhibition zones were measured in mm. Discs impregnated with DMSO were used as a control, and its inhibition zone was subtracted from the tested compound actual inhibition zone.
# [2] = test system: Escherichia coli; test: as above; conditions: nutrient agar, 37° C., 48 hours, DMSO zone subtracted; for inhibition zone, Escherichia coli, A: A = concentration of comp. = 10,000 μL; for inhibition zone, Escherichia coli, B: B = concentration of comp. = 30,000 μL; for inhibition zone, Escherichia coli, C: C = concentration of comp. = 50,000 μL
# Protocol: as §1
# [3] = test system: Pseudomonas aeruginosa; test: as above; conditions: nutrient agar, 37° C., 48 hours, DMSO zone subtracted; for inhibition zone, Pseudomonas aeruginosa, A: A = concentration of comp. = 10,000 μL; for inhibition zone, Pseudomonas aeruginosa, B: B = concentration of comp. = 30,000 μL; for inhibition zone, Pseudomonas aeruginosa, C: C = concentration of comp. = 50,000 μL
# Protocol: as §1
# [4] = test system: Staphylococcus aureus; test: as above; conditions: nutrient agar, 37° C., 48 hours, DMSO zone subtracted; for inhibition zone, Staphylococcus aureus, A: A = concentration of comp. = 10,000 μL; for inhibition zone, Staphylococcus aureus, B: B = concentration of comp. = 30,000 μL; for inhibition zone, Staphylococcus aureus, C: C = concentration of comp. = 50,000 μL
# Protocol: The agar plate disc-diffusion method was applied. […] The discs were then placed onto the surface of agar plates (nutrient agar for bacteria and Sabouraud's dextrose agar for fungi) seeded with the test organism. Each plate contained 15 mL of the agar medium, previously seeded with 0.2 mL of the broth culture of each organism pregrown for 18 h. The plates were incubated at 37° C. for 48 hours, and 72 hours for fungi. The inhibition zones were measured in mm. Discs impregnated with DMSO were used as a control, and its inhibition zone was subtracted from the tested compound actual inhibition zone.
# [5] = test system: Aspergillus flavus; test: Agar plate disc-diffusion, antifungal inhibition zone; conditions: Sabouraud's dextrose agar, 37° C., 72 hours, DMSO zone subtracted; for inhibition zone, Aspergillus flavus, A: A = concentration of comp. = 10,000 μL; for inhibition zone, Aspergillus flavus, B: B = concentration of comp. = 30,000 μL; for inhibition zone, Aspergillus flavus, C: C = concentration of comp. = 50,000 μL
# Protocol: as §1
# [6] = test system: Chrysosporium keratinophilum; test: as above; conditions: Sabouraud's dextrose agar, 37° C., 72 hours, DMSO zone subtracted; for inhibition zone, Chrysosporium keratinophilum, A: A = concentration of comp. = 10,000 μL; for inhibition zone, Chrysosporium keratinophilum, B: B = concentration of comp. = 30,000 μL; for inhibition zone, Chrysosporium keratinophilum, C: C = concentration of comp. = 50,000 μL
# Protocol: as §1
SMILES,"inhibition zone, Bacillus Cereus, A [1] [mm]","inhibition zone, Bacillus Cereus, B [1] [mm]","inhibition zone, Bacillus Cereus, C [1] [mm]","inhibition zone, Escherichia coli, A [2] [mm]","inhibition zone, Escherichia coli, B [2] [mm]","inhibition zone, Escherichia coli, C [2] [mm]","inhibition zone, Pseudomonas aeruginosa, A [3] [mm]","inhibition zone, Pseudomonas aeruginosa, B [3] [mm]","inhibition zone, Pseudomonas aeruginosa, C [3] [mm]","inhibition zone, Staphylococcus aureus, A [4] [mm]","inhibition zone, Staphylococcus aureus, B [4] [mm]","inhibition zone, Staphylococcus aureus, C [4] [mm]","inhibition zone, Aspergillus flavus, A [5] [mm]","inhibition zone, Aspergillus flavus, B [5] [mm]","inhibition zone, Aspergillus flavus, C [5] [mm]","inhibition zone, Chrysosporium keratinophilum, A [6] [mm]","inhibition zone, Chrysosporium keratinophilum, B [6] [mm]","inhibition zone, Chrysosporium keratinophilum, C [6] [mm]"
"CCOc1nc(-c2cccnc2)cc(-c2cccnc2)c1C#N [Compound 4, 2-ethoxy[4,3:6,3-terpyridine]-3-carbonitrile]",24,27,35,27,37,48,24,29,39,18,22,34,21,25,35,24,27,40
"COc1nc(-c2cccnc2)cc(-c2cccnc2)c1C#N [Compound 5, 2-methoxy[4,3:6,3-terpyridine]-3-carbonitrile]",26,28,38,28,38,50,24,32,38,19,28,34,25,27,38,27,29,48
